Measurements from patent publication US20160185797A1, “ALKYNYL ALCOHOLS AND METHODS OF USE” (Genentech, Inc., priority 2013, published 2016).

What was measured:
[1] = test system: p52 (NF-kB2) nuclear translocation in HeLa cells; assay: p52 (NF-kB2) nuclear translocation assay in HeLa cells, anti-lymphotoxin beta receptor antibody stimulated (non-classical NF-kB signaling), high content imaging; format: cell-based; conditions: Homo sapiens, 100 ng/mL anti-lymphotoxin beta receptor antibody for 5 hours, read-out: p52 HeLa Transloc Assay (IC50)
In short: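 HeLa cells in 10% FBS medium were treated with compound (0.2% DMSO final) and stimulated with 100 ng/mL anti-lymphotoxin beta receptor antibody for 5 h. Fixed cells were immunostained for p52 and imaged with DRAQ5 nuclear stain. Translocation is the nuclear to cytoplasmic intensity ratio, […].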

[2] = test system: REL-A (p65) nuclear translocation in HeLa cells; assay: REL-A (p65) nuclear translocation assay in HeLa cells, TNF-α stimulated (classical NF-kB signaling), high content imaging; format: cell-based; conditions: Homo sapiens, HeLa, compound 4.5 h, then 10 ng/mL TNF-α for 30 minutes, read-out: REL-A HeLa Transloc Assay (IC50)
In short: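 HeLa cells in medium with 10% fetal bovine serum were exposed to compounds (0.2% DMSO final) for 4.5 hours, then stimulated with 10 ng/mL TNF-α for 30 minutes. After fixation in 4% paraformaldehyde and permeabilization with 0.1% Triton X-100, cells were stained with 400 ng/mL anti-REL-A (p65) antibody, an Alexa488 secondary and DRAQ5. Opera imaging quantified the nuclear-to-cytoplasmic signal ratio to give IC50.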

[3] = biological target: T1, nuclear factor-kappa B (NF-kB)-inducing kinase (NIK) (Homo sapiens, UniProt Q99558); assay: NIK enzyme inhibition assay (Transcreener ADP fluorescence polarization, NIK ADP-FP); format: biochemical
T1 construct: made in house; host or cells: baculovirus-infected insect cells
T1 sequence (Q99558 whole entry): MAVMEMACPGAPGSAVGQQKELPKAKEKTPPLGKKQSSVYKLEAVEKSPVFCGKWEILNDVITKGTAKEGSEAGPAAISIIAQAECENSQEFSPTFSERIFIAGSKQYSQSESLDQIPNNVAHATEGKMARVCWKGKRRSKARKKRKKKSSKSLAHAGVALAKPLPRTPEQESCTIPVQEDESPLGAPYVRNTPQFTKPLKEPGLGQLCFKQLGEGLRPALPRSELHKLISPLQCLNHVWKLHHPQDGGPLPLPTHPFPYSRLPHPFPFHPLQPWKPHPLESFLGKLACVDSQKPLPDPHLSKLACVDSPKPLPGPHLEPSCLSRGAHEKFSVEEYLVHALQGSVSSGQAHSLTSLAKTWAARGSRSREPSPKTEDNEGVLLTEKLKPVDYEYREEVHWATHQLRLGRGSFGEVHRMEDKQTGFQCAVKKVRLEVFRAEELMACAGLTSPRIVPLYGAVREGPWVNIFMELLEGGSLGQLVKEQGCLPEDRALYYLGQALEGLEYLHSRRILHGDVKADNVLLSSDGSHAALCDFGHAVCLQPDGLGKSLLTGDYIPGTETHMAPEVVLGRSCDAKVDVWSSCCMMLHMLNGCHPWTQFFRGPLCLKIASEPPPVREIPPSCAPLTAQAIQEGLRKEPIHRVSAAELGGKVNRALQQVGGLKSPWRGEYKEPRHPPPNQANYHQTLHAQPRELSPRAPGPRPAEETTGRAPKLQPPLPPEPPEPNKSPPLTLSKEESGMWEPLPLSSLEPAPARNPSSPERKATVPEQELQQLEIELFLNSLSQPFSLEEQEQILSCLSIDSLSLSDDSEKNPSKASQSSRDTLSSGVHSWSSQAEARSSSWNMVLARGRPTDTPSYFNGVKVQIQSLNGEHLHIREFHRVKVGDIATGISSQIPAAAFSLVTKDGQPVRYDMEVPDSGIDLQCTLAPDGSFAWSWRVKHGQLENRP

| Structure (SMILES) | IC50 [1] [nM] | IC50 [2] [nM] | Ki [3] [nM] |
| --- | --- | --- | --- |
| CN1CC[C@@](O)(C#Cc2cc(F)cc(-c3nc(C(N)=O)c(N)cc3F)c2)C1=O [Example 167, 3-amino-5-fluoro-6-[3-fluoro-5-[2-[(3R)-3-hydroxy-1-methyl-2-oxo-pyrrolidin-3-yl]ethynyl]phenyl]pyridine-2-carboxamide] | 85 | > 2000 | < 0.05 |
| Cc1cc(C(N)=O)nc(-c2cc(F)cc(C#C[C@]3(O)CCN(C)C3=O)c2)c1 [Example 168, 6-[3-fluoro-5-[2-[(3R)-3-hydroxy-1-methyl-2-oxo-pyrrolidin-3-yl]ethynyl]phenyl]-4-methyl-pyridine-2-carboxamide] | 130 | > 2000 | 0.16 |
| COc1cc(-c2cccc(C#C[C@]3(O)CCN(C)C3=O)c2)nc(C(N)=O)c1C [Example 169, 6-[3-[2-[(3R)-3-hydroxy-1-methyl-2-oxo-pyrrolidin-3-yl]ethynyl]phenyl]-4-methoxy-3-methyl-pyridine-2-carboxamide] | 196 | > 2000 | 0.55 |
| Cc1cc(-c2cccc(C#C[C@]3(O)CCN(C)C3=O)c2)nc(C(N)=O)c1N [Example 170, 3-amino-6-[3-[2-[(3R)-3-hydroxy-l-methyl-2-oxo-pyrrolidin-3-yl]ethynyl]phenyl]-4-methyl-pyridine-2-carboxamide] | 26 | > 2000 | < 0.1 |
| COc1cc(C(N)=O)nc(-c2cc(F)cc(C#C[C@]3(O)CCN(C)C3=O)c2)c1 [Example 171, 6-[3-fluoro-5-[2-[(3R)-3-hydroxy-1-methyl-2-oxo-pyrrolidin-3-yl]ethynyl]phenyl]-4-methoxy-pyridine-2-carboxamide] | 132 | > 2000 | 0.24 |
| Cc1nc(-c2cccc(C#C[C@]3(O)CCN(C)C3=O)c2)nc(C(N)=O)c1N [Example 172, 5-amino-2-[3-[2-[(3R)-3-hydroxy-1-methyl-2-oxo-pyrrolidin-3-yl]ethynyl]phenyl]-6-methyl-pyrimidine-4-carboxamide] | 78 | > 2000 | 0.36 |
| CN1CC[C@@](O)(C#Cc2cccc(-c3cc(C(F)F)cc(C(N)=O)n3)c2)C1=O [Example 173, 4-(difluoromethyl)-6-[3-[2-[(3R)-3-hydroxy-1-methyl-2-oxo-pyrrolidin-3-yl]ethynyl]phenyl]pyridine-2-carboxamide] | 108 | > 2000 | 0.31 |
| CN1CC[C@@](O)(C#Cc2cccc(-c3cc(N4CCCC4=O)cc(C(N)=O)n3)c2)C1=O [Example 174, 6-[3-[2-[(3R)-3-hydroxy-1-methyl-2-oxo-pyrrolidin-3-yl]ethynyl]phenyl]-4-(2-oxopyrrolidin-1-yl)pyridine-2-carboxamide] | 449 | > 2000 | 0.53 |
